The values below come from patent US12612412B2, “Antiviral heterocyclic compounds” (Enanta Pharmaceuticals, Inc., priority 2021, dated 2026).

For assay [1], the system named is genotype A, "Long" strain RSV. Briefly: RSV-A assay (CPE protection in Hep-2 cells, ATPlite readout). The format is cell-based, Human respiratory syncytial virus (HRSV). Particulars: MOI 0.1, CPE protection. The gist of the method:
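Hep-2, 8,000 cells/well, MOI 0.1 (PFU- or TCID50-based); 2-fold compound series, duplicates; 5 d incubation; ATPlite luminescence readout; EC50.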
(Cellular ATP, detected with luciferase, serves as a proxy for viable cell number.)

In assay [2] the test system is HMPV clinical isolate TN/1501/A1. Briefly: HMPV antiviral assay Method-B (clinical isolate TN/1501/A1 in LLC-MK2 cells, ATP-Lite readout). The format is cell-based, Human metapneumovirus (HMPV). Particulars: hMPV WT1501 (clinical isolate TN/1501/A1), 6 days. The gist of the method: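 LLC-MK2 cells infected in suspension with TN/1501/A1 at MOI 0.014 in serum-free medium with 2 μg/mL TPCK-trypsin (final), incubated 6 days at 37° C. Compounds tested in duplicate, 10-point 3-fold dilutions from 10 μM. Cell health read by ATP-Lite luminescence, normalised to virus-only and cells-only controls; EC50 by four-parameter logistic fit.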

[3] abbreviates: human respiratory syncytial virus, genotype A “Long” strain RSV, read-out: Human RSV-A (“Long”).
[4] abbreviates: human metapneumovirus, LLC-MK2, 144 h.
Setting [5] is: human respiratory syncytial virus, RSV-A Long strain, read-out: Human RSV-A (“Long”) EC50.

pEC50: −log10 of the molar value. Read-outs that look alike come from different tables or passages of the source. A value given as a limit tells only on which side of the number the result lay.

As to `Cc1cnc2c(Cl)cc(C(=O)NC[C@](O)(c3cc4c(c(-c5ccc(F)c(F)c5F)n3)OC[C@]4(C)C(N)=O)C3CC3)cc2c1` [Example 531], the figures for the pEC50 in assay [1] (setting [3]) and in assay [2] (setting [4]) were more than 6.70 and more than 6.30, respectively.
`COc1cc(C(=O)NC[C@](O)(c2cc3c(c(-c4ccc5c(c4)OC(F)(F)O5)n2)OC[C@]3(C)C(N)=O)C2(F)CC2)cc2cn(C(F)F)nc12` [Example 720]: the values for the pEC50 in assay [1] (setting [3]) and in assay [2] (setting [4]) were more than 6.70 and more than 6.30, respectively.
For the molecule `COc1cc(C(=O)NC[C@](O)(c2cc3c(c(-c4cccc(C5CC5)c4)n2)OC[C@]3(C)C(N)=O)C(F)(F)F)cc2cn(C3CC3)nc12` [Example 977], the results for the pEC50 in assay [1] (setting [5]) and in assay [2] (setting [4]) were more than 6.70 and less than 6.30, respectively.
For `Cc1cnc2c(OC(F)F)cc(C(=O)NC[C@](O)(c3cc4c(c(-c5ccc(F)c(F)c5Cl)n3)OC[C@]4(C)C(N)=O)C(F)(F)F)cc2c1` [Example 781], the pEC50 in assay [1] (setting [3]) was more than 6.70; in assay [2] (setting [4]) it was more than 6.30.
As for `COc1cc(C(=O)NC[C@](O)(c2cc3c(c(-c4ccc(F)c(F)c4F)n2)OC[C@]3(C)C(N)=O)C2CC2)cc2cn(C3CC3)nc12` [Example 525], the values for the pEC50 in assay [1] (setting [3]) and in assay [2] (setting [4]) were more than 6.70 and more than 6.30, respectively.
Take `Cc1nc2c(Cl)cc(C(=O)NC[C@](O)(c3cc4c(c(-c5ccc(F)c(F)c5Cl)n3)OC[C@]4(C)C(N)=O)C3CC3)cc2cc1Cl` [Example 1186]: the pEC50 is more than 6.70 in assay [1] (setting [5]) and more than 6.30 in assay [2] (setting [4]).
Taken in the same sequence, the figures for `Cc1cnc2c(OC(F)F)cc(C(=O)NC[C@](O)(c3cc4c(c(-c5cc(F)c(F)cc5F)n3)OC[C@]4(C)C(N)=O)C(F)(F)F)cc2c1` [Example 1142] were more than 6.70 and more than 6.30.
In the same order, the values of `Cc1cnc2c(Cl)cc(C(=O)NC[C@](O)(c3cc4c(c(-c5ccc(F)c(F)c5Cl)n3)OC[C@]4(C)C(N)=O)C3CC3)cc2c1` [Example 1187] are more than 6.70 and more than 6.30.
For the molecule `COc1cc(C(=O)NC[C@](O)(c2cc3c(c(-c4ccc(Cl)cc4F)n2)OC[C@]3(C)C(N)=O)C(F)(F)F)cc2cn(C3CC3)nc12` [Example 987], the pEC50 in assay [1] (setting [5]) was more than 6.70; in assay [2] (setting [4]), more than 6.30.
Consider `COc1cc(C(=O)NCC(O)(c2cc3c(c(-c4ccc5ccn(C(F)F)c5c4)n2)OCC3(C)C(N)=O)C(F)(F)F)cc2cn(C3CC3)nc12` (stereo not drawn) [Example 940], for which the pEC50 in assay [1] (RSV-A Long strain, read-out: Human RSV-A (“Long”) EC50) is more than 6.70; in assay [2] it was less than 6.30.
Regarding `Cc1nc2c(OC3CC3)cc(C(=O)NC[C@](O)(c3cc4c(c(-c5ccc(F)cc5)n3)OC[C@]4(C)C(N)=O)C(F)(F)F)cc2cc1Cl` [Example 885], the pEC50 was more than 6.70 in assay [1] (setting [5]) and more than 6.30 in assay [2] (setting [4]).
Turning to `Cc1cnc2c(Cl)cc(C(=O)NC[C@](O)(c3cc4c(c(-c5cc(F)c(Cl)cc5F)n3)OC[C@]4(C)C(N)=O)C3CC3)cc2c1` [Example 1181], the pEC50 in assay [1] (setting [5]) is more than 6.70; in assay [2] (setting [4]), more than 6.30.
As for `COc1cc(C(=O)NC[C@](O)(c2cc3c(c(-c4ccc5c(c4)OC(F)(F)O5)n2)OC[C@]3(C)C(N)=O)C(F)(F)F)cc2cn(C3(F)CC3)nc12` [Example 837], the pEC50 in assay [1] (setting [5]) was more than 6.70; in assay [2] (setting [4]), more than 6.30.
For the molecule `[2H]C([2H])([2H])[C@](O)(CNC(=O)c1cc(OC(F)F)c2ncc(C)cc2c1)c1cc2c(c(-c3ccc(F)cc3)n1)OC[C@]2(C)C(N)=O` [Example 647], the pEC50 in assay [1] (setting [3]) was more than 6.70; in assay [2] (setting [4]), less than 6.30.
Take `COc1cc(C(=O)NC[C@](O)(c2cc3c(c(-c4ccc(F)c(Cl)c4)n2)OC[C@]3(C(N)=O)C(F)F)C(F)(F)F)cc2cn(C3CC3)nc12` [Example 1002]: the pEC50 in assay [1] (setting [5]) was less than 6.70; in assay [2] (setting [4]) it was less than 6.30.
Taken in the same sequence, the figures for `COc1cc(C(=O)NC[C@](O)(c2cc3c(c(-c4ccc5nc(C)ccc5c4)n2)OC[C@]3(C)C(N)=O)C(F)(F)F)cc2cn(C3CC3)nc12` [Example 967] were less than 6.70 and less than 6.30.
With `COc1cc(C(=O)NC[C@](O)(c2cc3c(c(-c4cc(Cl)c(F)cc4F)n2)OC[C@]3(C)C(N)=O)C(F)(F)F)cc2cc(Cl)c(C)nc12` [Example 620], the results for the pEC50 in assay [1] (setting [3]) and in assay [2] (setting [4]) were more than 6.70 and more than 6.30, respectively.
Taken in the same sequence, the figures for `COc1cc(C(=O)NC[C@](O)(c2cc3c(c(-c4ccc(Cl)c(F)c4F)n2)OC[C@]3(C)C(N)=O)C2CC2)cc2cn(C(F)F)nc12` [Example 684] were more than 6.70 and more than 6.30.
Consider `COc1cc(C(=O)NC[C@](O)(c2cc3c(c(-c4ccc(F)c(Cl)c4)n2)OC[C@@]3(C(N)=O)C(F)F)C(F)(F)F)cc2cc(Cl)c(C)nc12` [Example 1005], for which the pEC50 in assay [1] (setting [5]) is more than 6.70; in assay [2] (setting [4]) it was more than 6.30.
In the case of `Cc1cnc2c(OC(F)F)cc(C(=O)NC[C@](O)(c3cc4c(c(-c5ccc(F)c(F)c5F)n3)OC[C@]4(C)C(N)=O)C3CC3)cc2c1` [Example 527], the pEC50 in assay [1] (setting [3]) was more than 6.70; in assay [2] (setting [4]), more than 6.30.
With `COc1cc(C(=O)NC[C@](O)(c2cc3c(c(-c4cc(Cl)ccc4F)n2)OC[C@]3(C)C(N)=O)C(F)(F)F)cc2cn(C3CC3)nc12` [Example 990], the figures for the pEC50 in assay [1] (setting [5]) and in assay [2] (setting [4]) were more than 6.70 and more than 6.30, respectively.
On to `C[C@]1(C(N)=O)COc2c1cc([C@@](O)(CNC(=O)c1cc(Cl)c3nn(C4CC4)cc3c1)C1CC1)nc2-c1ccc(Cl)c(F)c1F` [Example 686], for which the pEC50 was more than 6.70 in assay [1] (setting [3]) and more than 6.30 in assay [2] (setting [4]).
Regarding `COc1cc(C(=O)NC[C@](O)(c2cc3c(c(-c4ccc(Cl)c(F)c4)n2)OC[C@]3(C)C(N)=O)C(F)(F)F)cc2cn(C3CC3)nc12` [Example 986], the pEC50 in assay [1] (setting [5]) was more than 6.70; in assay [2] (setting [4]), more than 6.30.
Consider `COc1cc(C(=O)NC[C@](O)(c2cc3c(c(-c4ccc(F)cc4)n2)OC[C@]3(C)C(N)=O)C2(F)CC2)cc2cn(C3CC3)nc12` [Example 705], for which the pEC50 in assay [1] (setting [3]) is more than 6.70; in assay [2] (setting [4]), more than 6.30.
Consider `COc1cc(C(=O)NC[C@](O)(c2cc3c(c(-c4csc(C(F)(F)F)n4)n2)OC[C@]3(C)C(N)=O)C(F)(F)F)cc2cn(C3CC3)nc12` [Example 951], for which the pEC50 in assay [1] (setting [5]) is more than 6.70; in assay [2] (setting [4]), more than 6.30.
As to `COc1cc(C(=O)NC[C@](O)(c2cc3c(c(-c4ccc(F)cc4)n2)OC[C@]3(C)C(N)=O)C(F)(F)F)cc2nn(C3CC3)cc12` [Example 874], the pEC50 in assay [1] (setting [5]) was less than 6.70; in assay [2] (setting [4]) it was less than 6.30.
In the same order, the values of `COc1ccc(-c2nc([C@@](O)(CNC(=O)c3cc(OC)c4nn(C5CC5)cc4c3)C(F)(F)F)cc3c2OC[C@]3(C)C(N)=O)cc1Cl` [Example 933] are more than 6.70 and less than 6.30.
`COc1cc(C(=O)NC[C@](O)(c2cc3c(c(-c4ccc5c(c4)OC(F)(F)O5)n2)OC[C@]3(C)C(N)=O)C(F)(F)F)cc2cn(C(F)F)nc12` [Example 591]: the pEC50 in assay [1] (setting [3]) was more than 6.70; in assay [2] (setting [4]) it was more than 6.30.
In the same order, the values of `COc1cc(C(=O)NC[C@](O)(c2cc3c(c(-c4ccc(F)c(F)c4Cl)n2)OC[C@]3(C)C(N)=O)C2CC2)cc2cn(C3(F)CC3)nc12` [Example 562] are more than 6.70 and more than 6.30.
Taken in the same sequence, the figures for `COc1cc(C(=O)NC[C@](O)(c2cc3c(c(-c4ccc(F)cc4)n2)OC[C@]3(C)C(N)=O)C2CCC2)cc2cn(C3(F)CC3)nc12` [Example 726] were more than 6.70 and more than 6.30.
Consider `C[C@]1(C(N)=O)COc2c1cc([C@@](O)(CNC(=O)c1cc(Cl)c3nn(C4CC4)cc3c1)C1CC1)nc2-c1cc(F)c(Cl)cc1F` [Example 1179], for which the pEC50 is more than 6.70 in assay [1] (setting [5]) and more than 6.30 in assay [2] (setting [4]).
In the same order, the values of `C[C@]1(C(N)=O)COc2c1cc([C@@](O)(CNC(=O)c1cc(OCC3CC3)c3nn(C4(F)CC4)cc3c1)C(F)(F)F)nc2-c1ccc(F)cc1` [Example 877] are more than 6.70 and more than 6.30.
In the same order, the values of `COc1cc(C(=O)NC[C@](O)(c2nc(-c3ccc(F)cc3)c3c(c2F)[C@](C)(C(N)=O)CO3)C(F)(F)F)cc2cn(C(F)F)nc12` [Example 852] are more than 6.70 and less than 6.30.
For the molecule `COc1cc(C(=O)NC[C@](O)(c2cc3c(c(-c4ccc(C#N)c(Cl)c4)n2)OC[C@]3(C)C(N)=O)C(F)(F)F)cc2cc(Cl)c(C)nc12` [Example 578], the pEC50 in assay [1] (setting [3]) was more than 6.70; in assay [2] (setting [4]) it was less than 6.30.
For the molecule `COc1cc(C(=O)NC[C@](O)(c2cc3c(c(-c4ccc(F)c(Cl)c4)n2)OC[C@]3(CF)C(N)=O)C(F)(F)F)ccc1OC1CC1` [Example 1049], the pEC50 is more than 6.70 in assay [1] (setting [5]) and more than 6.30 in assay [2] (setting [4]).
`COc1ccc(C(=O)NC[C@](O)(c2cc3c(c(-c4ccc(F)cc4)n2)OC[C@]3(C)C(N)=O)C(F)(F)F)n2cc(C)nc12` [Example 694]: the results for the pEC50 in assay [1] (setting [3]) and in assay [2] (setting [4]) were more than 6.70 and less than 6.30, respectively.
Turning to `COc1cc(C(=O)NC[C@](O)(c2cc3c(c(-c4ccc(F)cc4)n2)OC[C@]3(C)C(N)=O)C2CCCC2)cc2cn(C3CC3)nc12` [Example 644], the pEC50 was less than 6.70 in assay [1] (setting [3]) and less than 6.30 in assay [2] (setting [4]).
Consider `COc1cc(C(=O)NC[C@](O)(c2cc3c(c(-c4ccc(F)cc4Cl)n2)OC[C@]3(C)C(N)=O)C2CC2)cc2cn(C3(F)CC3)nc12` [Example 652], for which the results for the pEC50 in assay [1] (setting [3]) and in assay [2] (setting [4]) were more than 6.70 and more than 6.30, respectively.
Taken in the same sequence, the figures for `COc1cc(C(=O)NC[C@](O)(c2cc3c(c(-c4cc(F)c(F)cc4Cl)n2)OC[C@]3(C)C(N)=O)C2CC2)cc2cn(C(F)F)nc12` [Example 658] were more than 6.70 and more than 6.30.
